Laboratory results as given in US12545685B2 (Daiichi Sankyo Company, Limited, priority 2011, dated 2026).

Each compound was assayed against T1, Mdm2/p53 binding (GST-Mdm2 / His-p53) (Homo sapiens, UniProt Q00987, L33E) (assay: Mdm2/p53 binding assay (HTRF, His-p53 and GST-Mdm2)). Settings: His-p53 (aa 1-132) and GST-Mdm2 (aa 25-108, L33E) 6.25 nM each; 25°C, 1 hour; values given as ranges.
T1 construct: Mdm2 partial protein having Mdm2 amino acids at positions 25 to 108
Experimental: A protein dilution containing 6.25 nM each of His-p53 (fusion protein of a p53 partial protein having p53 amino acids at positions 1 to 132, with a histidine protein) and GST-Mdm2 (fusion protein of an Mdm2 partial protein having Mdm2 amino acids at positions 25 to 108 with leucine residue 33 substituted by glutamic acid, with glutathione transferase) proteins was prepared using a protein buffer solution (20 mM HEPES pH 7.4, 150 mM NaCl, 0.1% BSA). This protein dilution was added in an amount of 8 μl/well to a 384-well plate (384-well low volume NBC, Corning Inc., catalog No: 3676).
Next, a test compound was diluted with DMSO to produce a protein buffer solution containing 10% dilution, and this buffer solution was added in an amount of 4 μl/well to the plate.
Subsequently, a solution containing an XL665-labeled anti-His antibody (HTRF monoclonal anti-6HIS antibody labeled with XL665 (catalog No: 61HISXLB), Schering/Cisbio Bioassays) and a europium (Eu)-labeled anti-GST antibody (HTRF monoclonal anti-GST antibody labeled with europium cryptate, Schering/Cisbio Bioassays, catalog No: 61GSTKLB) at concentrations of 2.5 μg/ml and 0.325 μg/ml, respectively, was prepared using an antibody diluting buffer solution (20 mM HEPES pH 7.4, 150 mM NaCl, 0.1% BSA, 0.5 M KF). These dilutions were added in an amount of 8 μl/well (total reaction solution volume: 20 μl/well). Then the plate was incubated at 25° ° C. for 1 hour.
Time-resolved fluorescence at 620 and 665 nm was measured at an excitation wavelength of 320 nm using a plate reader (ARVOsx, PerkinElmer Co., Ltd. or PHERAstar, BMG LABTECH). Ratio (R) was calculated using the measured values (RFU 620 nm and RFU 665 nm) according to the following formula: […]
BI: measured value at 665 nm of reaction solution (only each buffer solution) nonsupplemented with each protein, the compound, and the antibodies
A and D: each measured value at 665 nm and 620 nm of reaction solution supplemented with only Eu-labeled anti-GST antibody solution
The R value calculated from the well supplemented with His-p53, GST-Mdm2, the test compound, and each antibody was defined as R (sample). The R value calculated from the well supplemented with His-p53, GST-Mdm2, and each antibody but without the test compound was defined as R (control). The R value calculated from the well supplemented with GST-Mdm2 the test compound, and each antibody but without His-p53 was defined as R (background). T/C was calculated from the formula shown below. An IC50 value for Mdm2/p53 binding was calculated by sigmoid fitting.

T1 sequence (Q00987 25-108 L33E): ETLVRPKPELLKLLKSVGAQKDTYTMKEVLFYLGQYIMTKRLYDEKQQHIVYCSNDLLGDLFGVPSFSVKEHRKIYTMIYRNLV

First: CC1(C)CCC2(CC1)N[C@@H](C(=O)N[C@H]1CC[C@H](N3CC(O)C3)CC1)[C@H](c1cccc(Cl)c1F)[C@]21C(=O)Nc2cc(Cl)ccc21 (relative stereo) [Example 12, (3′R, 4′S,5′R)-6″-chloro-4′-(3-chloro-2-fluorophenyl)-N-[trans-4-(3-hydroxyazetidin-1-yl)cyclohexyl]-4,4-dimethyl-2″-oxo-1″,2″-dihydrodispiro[cyclohexane-1,2′-pyrrolidine-3′,3″-indole]-5′-carboxamide]
Second: CC1(C)CCC2(CC1)N[C@@H](C(=O)N[C@H]1CC[C@H](O)CC1)[C@H](c1cccc(Cl)c1F)[C@]21C(=O)Nc2cc(C#N)ccc21 [Example 15, (3′R, 4′S,5′R)-4′-(3-chloro-2-fluorophenyl)-6″-cyano-N-(trans-4-hydroxycyclohexyl)-4,4-dimethyl-2″-oxo-1″,2″-dihydrodispiro[cyclohexane-1,2′-pyrrolidine-3′,3″-indole]-5%-carboxamide]
The IC50 of the first is lower: 0.001 to 0.05 µM for the first, 0.05 to 0.1 µM for the second.

First: CNC(=O)c1cc(Cl)cc([C@H]2[C@H](C(=O)N[C@H]3CC[C@H](O)CC3)NC3(CCC(C)(C)CC3)[C@@]23C(=O)Nc2cc(Cl)ccc23)c1 (relative stereo) [Example 21, (3′R, 4′R, 5′R)-6″-chloro-4′-[3-chloro-5-(methylcarbamoyl)phenyl]-N-(trans-4-hydroxycyclohexyl)-4,4-dimethyl-2″-oxo-1″,2″-dihydrodispiro[cyclohexane-1,2′-pyrrolidine-3′,3″-indole]-5′-carboxamide]
Second: CC(=O)Nc1cc(Cl)cc([C@H]2[C@H](C(=O)N[C@H]3CC[C@H](O)CC3)NC3(CCC(C)(C)CC3)[C@@]23C(=O)Nc2cc(Cl)ccc23)c1 [Example 37, (3′R, 4′R, S′R)-4′-(3-acetamide-5-chlorophenyl)-6″-chloro-N-(trans-4-hydroxycyclohexyl)-4,4-dimethyl-2″-oxo-1″,2″-dihydrodispiro[cyclohexane-1,2′-pyrrolidine-3′,3″-indole]-5′-carboxamide]
The IC50 of the first is lower: 0.001 to 0.05 µM for the first, 0.05 to 0.1 µM for the second. The first is the more potent here.

First: CC1(C)CCC2(CC1)N[C@@H](C(=O)N[C@H]1CC[C@H](O)CC1)[C@H](c1cc(N)cc(Cl)c1)[C@]21C(=O)Nc2cc(Cl)ccc21 (relative stereo) [Example 36, (3′R, 4′R, 5′R)-4′-(3-amino-5-chlorophenyl)-6″-chloro-N-(trans-4-hydroxycyclohexyl)-4,4-dimethyl-2″-oxo-1″,2″-dihydrodispiro[cyclohexane-1,2′-pyrrolidine-3′,3″-indole]-5′-carboxamide]
Second: COC(=O)c1cc(Cl)cc([C@H]2[C@H](C(=O)N[C@@H]3CC[C@@H](CO)OC3)NC3(CCC(C)(C)CC3)[C@@]23C(=O)Nc2cc(Cl)ccc23)c1 [Example 22, 1,5-Anhydro-2-[({(3′R, 4′R, 5′R)-6″-chloro-4′-[3-chloro-5-(methoxycarbonyl)phenyl]-4,4-dimethyl-2″-oxo-1″,2″-dihydrodispiro[cyclohexane-1,2′-pyrrolidine-3′,3″-indole]-5′-yl}carbonyl)amino]-2,3,4-trideoxy-D-erythro-hexitol]
The IC50 of the first is lower: 0.001 to 0.05 µM for the first, 0.05 to 0.1 µM for the second.

`CC1(C)CCC2(CC1)N[C@@H](C(=O)N[C@H]1CC[C@H](c3noc(=O)[nH]3)CC1)[C@H](c1cccc(Cl)c1F)[C@]21C(=O)Nc2nc(Cl)ccc21` (relative stereo) [Example 49, (3′R, 4′S,5′R)-6″-chloro-4′-(3-chloro-2-fluorophenyl)-4,4-dimethyl-2″-oxo-N-[trans-4-(5-oxo-4,5-dihydro-1,2,4-oxadiazol-3-yl)cyclohexyl]-1″,2″-dihydrodispiro[cyclohexane-1,2′-pyrrolidine-3′,3″-pyrrolo[2,3-b]pyridine]-5′-carboxamide] and `CC(O)[C@@H]1CC[C@@H](NC(=O)[C@@H]2NC3(CCC(C)(C)CC3)[C@@]3(C(=O)Nc4nc(Cl)ccc43)[C@H]2c2ccnc(Cl)c2F)CO1` (single isomer, unassigned) [Example 75] fall in the same range of IC50: 0.001 to 0.05 µM for the first, 0.001 to 0.05 µM for the second.

Compared with `O=C(N[C@H]1CC[C@H](O)CC1)[C@@H]1NC2(CC(CF)(CF)C2)[C@@]2(C(=O)Nc3cc(Cl)ccc32)[C@H]1c1cccc(Cl)c1F` (relative stereo) [Example 121, (3′R, 4′S,5′R)-6″-chloro-4′-(3-chloro-2-fluorophenyl)-3,3-bis(fluoromethyl)-N-(trans-4-hydroxycyclohexyl)-2″-oxo-1″,2″-dihydrodispiro[cyclobutane-1,2′-pyrrolidine-3′,3″-indole]-5′-carboxamide], `CC(O)[C@@H]1CC[C@@H](NC(=O)[C@@H]2NC3(CC(CF)(CF)C3)[C@@]3(C(=O)Nc4cc(Cl)ccc43)[C@H]2c2cccc(Cl)c2F)CO1` (single isomer, unassigned) [Example 146] is lower in IC50: 0.05 to 0.1 µM for the first, 0.001 to 0.05 µM for the second.

Compared with `CN(C)C(=O)[C@H]1CC[C@H](NC(=O)[C@@H]2NC3(CC(CF)(CF)C3)[C@@]3(C(=O)Nc4cc(Cl)ccc43)[C@H]2c2cc(F)cc(Cl)c2)CC1` (relative stereo) [Example 168, (3′R, 4′R, 5′R)-6″-chloro-4′-(3-chloro-5-fluorophenyl)-N-[trans-4-(dimethylcarbamoyl)cyclohexyl]-3,3-bis(fluoromethyl)-2″-oxo-1″,2″-dihydrodispiro[cyclobutane-1,2′-pyrrolidine-3′,3″-indole]-5′-carboxamide], `CC(O)[C@@H]1CC[C@@H](NC(=O)[C@@H]2NC3(CC(CF)(CF)C3)[C@@]3(C(=O)Nc4cc(Cl)ccc43)[C@H]2c2cccc(Cl)c2F)CO1` (single isomer, unassigned) [Example 147] is lower in IC50: 0.1 to 0.5 µM for the first, 0.05 to 0.1 µM for the second. The second is the more potent here.

First: CC1(C)CCC2(CC1)N[C@@H](C(=O)N[C@H]1CC[C@H](c3nnco3)CC1)[C@H](c1ccnc(Cl)c1F)[C@]21C(=O)Nc2cc(Cl)ncc21 (relative stereo) [Example 190]
Second: CC1(C)CCC2(CC1)N[C@@H](C(=O)N[C@@H]1CC[C@@H](C(O)CO)OC1)[C@H](c1ccnc(Cl)c1F)[C@]21C(=O)Nc2cc(Cl)ccc21 (single isomer, unassigned) [Example 89]
The IC50 of the first is higher: 0.05 to 0.1 µM for the first, 0.001 to 0.05 µM for the second.

Compared with `CC1(C)CCC2(CC1)N[C@@H](C(=O)N[C@H]1CO[C@H](CO)C(C)(O)C1)[C@H](c1ccnc(Cl)c1F)[C@]21C(=O)Nc2cc(Cl)ccc21` (single isomer, unassigned) [Example 85], `CC1(C)CCC2(CC1)N[C@@H](C(=O)N[C@@H]1C=C[C@@H](CO)OC1)[C@H](c1cccc(Cl)c1F)[C@]21C(=O)Nc2cc(Cl)ccc21` [Example 19, (3′R,4′S,5′R)-6″-chloro-4′-(3-chloro-2-fluorophenyl)-N-[(3R,6S)-6-(hydroxymethyl)-3,6-dihydro-2H-pyran-3-yl]-4,4-dimethyl-2″-oxo-1″,2″-dihydrodispiro[cyclohexane-1,2′-pyrrolidine-3′,3″-indole]-5′-carboxamide] is higher in IC50: 0.001 to 0.05 µM for the first, 0.05 to 0.1 µM for the second. The first is the more potent here.

First: CC1(C)CCC2(CC1)N[C@@H](C(=O)N[C@@H]1CC[C@@H](C(C)(C)O)OC1)[C@H](c1ccnc(Cl)c1)[C@]21C(=O)Nc2cc(Cl)ccc21 [Example 10, (3′R, 4′R, 5′R)-6″-chloro-4′-(2-chloropyridin-4-yl)-N-[(3R,6S)-6-(1-hydroxy-1-methylethyl)tetrahydro-2H-pyran-3-yl]-4,4-dimethyl-2″-oxo-1″,2″-dihydrodispiro[cyclohexane-1,2′-pyrrolidine-3′,3″-indole]-5′-carboxamide]
Second: CNC(=O)c1cc(Cl)cc([C@H]2[C@H](C(=O)N[C@@H]3CC[C@@H](CO)OC3)NC3(CCC(C)(C)CC3)[C@@]23C(=O)Nc2cc(Cl)ccc23)c1 [Example 27, 2, 5˜Anhydro-2-[({(3′R, 4′R, 5′R)-6″-chloro-4′-[3-chloro-5-(methylcarbamoyl)phenyl]-4,4-dimethyl-2″-oxo-1″,2″-dihydrodispiro[cyclohexane-1,2′-pyrrolidine-3′,3″-indole]-5′-yl}carbonyl)amino]-2,3,4-trideoxy-D-erythro-hexitol]
The IC50 of the first is higher: 0.05 to 0.1 µM for the first, 0.001 to 0.05 µM for the second. The second is the more potent here.

With `CC1(C)CCC2(CC1)N[C@@H](C(=O)N[C@H]1CC[C@@](O)(CO)CC1)[C@H](c1cccc(Cl)c1F)[C@]21C(=O)Nc2cc(Cl)ccc21` [Example 33, (3′R, 4′S,5′R)-6″-chloro-4′-(3-chloro-2-fluorophenyl)-N-[trans-4-hydroxy-4-(hydroxymethyl)cyclohexyl]-4,4-dimethyl-2″-oxo-1″,2″-dihydrodispiro[cyclohexane-1,2′-pyrrolidine-3′,3″-indole]-5′-carboxamide] the IC50 was 0.001 to 0.05 µM.
